Reference: US9657064B2, “Cell penetrating peptides” (UNIVERSITE DE GENEVE, priority 2012, dated 2017)

Columns and labels:
[1] = tested on: ovalbumin CD8+ epitope specific immune response; experiment: In vivo vaccination of mice with different CPP-OVA fusion polypeptides, Pentamer staining in blood (Example 5); settings: for Fold increase in proliferation compared to CPP14: 10 nmol s.c. twice at 14 days of interval, with anti-CD40 and poly-IC, relative to CPP14-OVA reference
Experimental: The experiment was performed as described in Example 3.
Four to eight mice per group were vaccinated twice subcutaneously at 14 days of interval with 10 nmol of fusion polypeptides comprising one of the CPPs indicated in Table 2 fused to the ovalbumin CD8^+ epitope (SEQ ID NO: 3) flanked by the spacers of SEQ ID NO: 11 and SEQ ID NO: 12 at the N-terminal and C-terminal part of the CD8^+ epitope, respectively. Each CPP-OVA fusion polypeptide was injected in PBS with 100 μg anti-CD40. 50 μg poly-IC was injected intramuscularly 7 days after the second vaccination. Immune response was monitored in the blood with a Pentamer staining followed by flow cytometry analysis.
The results are presented in Table 3 as fold increase relative to a CPP-OVA fusion polypeptide of reference comprising CPP14 of SEQ ID NO: 22.

[2] = tested on: human astrocytoma cells U251; experiment: In vitro transduction of fluorescein-labeled CPP-OVA fusion polypeptides, flow cytometry; type: cell-based; settings: 0.9 μM, 2 h at 37° C., ratio of mean fluorescence index between cells alone and loaded cells
Experimental: (§1) Transduction into cells was monitored using different CPP-OVA fusion polypeptides comprising CPP1, CPP2, CPP8, or CPP10. Each of these CPPs fused with the immunodominant CD8^+ T cell epitope from ovalbumin were chemically synthesized and labeled with fluorescein. 5.10^5 cells were incubated for 2 h at 37° C. with 0.9 μM of the different fusion polypeptides. The cells tested were human lymphoid cells K562, murine lymphoid cells EL4, human astrocytoma cells U251 and murine astrocytoma cells GL261. The cells were washed in an acid buffer to remove all the membrane bound peptide and stained for viability with Live-Dead Yellow. Analysis was performed by flow cytometry. The index of fluorescence indicates the level of fluorescence above the natural auto-fluorescence of the cells. It is the ratio of the mean fluorescence index measured by flow cytometry between the cells alone and the cells loaded with CPP-OVA fusion polypeptides.

[3] = tested on: murine astrocytoma cells GL261; experiment: as above; type: cell-based; settings: 0.9 μM, 2 h at 37° C., ratio of mean fluorescence index between cells alone and loaded cells
Experimental: as §1

[4] = tested on: human lymphoid cells K562; experiment: as above; type: cell-based; settings: 0.9 μM, 2 h at 37° C., ratio of mean fluorescence index between cells alone and loaded cells
Experimental: as §1

[5] = tested on: murine lymphoid cells EL4; experiment: as above; type: cell-based; settings: 0.9 μM, 2 h at 37° C., ratio of mean fluorescence index between cells alone and loaded cells
Experimental: as §1

[6] = tested on: ovalbumin-specific CD8+ T cells; experiment: Vaccination of mice with CPP-OVA fusion polypeptides, multimer staining of splenocytes (Example 3); type: in vivo; settings: 2 s.c. vaccinations at 14 days of interval, 20 μg fusion polypeptide + 100 μg anti-CD40, 50 μg poly-IC i.m., PBS control 0.18%
Experimental: Mice were vaccinated twice sub-cutaneously at 14 days of interval with 20 μg of each CPPs-OVA fusion polypeptides and 100 μg anti-CD40, 50 μg poly-IC was injected intramuscularly 10 days after the boost, the mice were sacrificed and the splenocytes stained with a multimer and anti-CD8. Negative control with PBS (A); CPP1-OVA (B); CPP2-OVA (C).
To test the capacity of the polypeptides corresponding to constructs 1 and 2 to stimulate antigen-specific CD8^+ T cells in more stringent conditions, they were tested in vivo in a vaccination protocol (FIG. 2). In order to elicit an in vivo response, the polypeptide vaccine must be taken up by naturally present antigen presenting cells in the injected animal, and stimulation of polyclonal T cells must be highly efficient if ovalbumin-specific T cells are to be detected ex vivo. The read-out for these experiments was flow cytometry of splenocytes, using MHC-peptide multimers to detect ovalbumin-specific CD8^+ T cells.

KRYKNRVA [CPP7, 8-amino acid-long fragment of Zebra, positions 178 to 185; negative control, tested as CPP-OVA fusion, reference compound]
immunogenic potential compared to the reference fusion polypeptide comprising CPP14 ([1]; 10 nmol s.c. twice): lower immunogenic potential
Fold increase in proliferation compared to CPP14 [1]: 0.65

KRYKNRVASRKSRAKFK (CCP1) [CPP1]
index of fluorescence [2]: 4.5
index of fluorescence [3]: 2.4
index of fluorescence [4]: 3
index of fluorescence [5]: 4.8
Fold increase in proliferation compared to CPP14 [1]: 1.74

KRYKNRVASRKSRAKFKQLLQHYREVAAAK [CPP2]
index of fluorescence [2]: 25.1
index of fluorescence [3]: 20.8
index of fluorescence [4]: 15
index of fluorescence [5]: 57.7
Fold increase in proliferation compared to CPP14 [1]: 1.41

KRYKNRVASRKSRAKFKQLLQHYREVAAAKEQLESIINFEKLTEWT [construct 2]
CD8+ T cells multimer positive (ovalbumin-specific CD8+ T cells) [6]: over 1%

QHYREVAAAKSSEND [CPP8]
index of fluorescence [2]: 2
index of fluorescence [3]: 1.4
index of fluorescence [4]: 1.9
index of fluorescence [5]: 2.5
Fold increase in proliferation compared to CPP14 [1]: 1.28

REVAAAKSSENDRLRLLLK [CPP10]
index of fluorescence [2]: 4
index of fluorescence [3]: 1.9
index of fluorescence [4]: 3.7
index of fluorescence [5]: 4
Fold increase in proliferation compared to CPP14 [1]: 2.17
